Experimental data taken from US20050148560A1, “Prevention and treatment of hypertensive heart diseases by the selective estrogens 8beta-vinyl-estra-1,3,5(10)-trien-3,17beta-diol and 17beta-fluor-9alpha-vinyl-estra-1,3,5(10)-trien-3,16alpha-diol” (priority 2003, published 2005).
Entries after “also recorded” stand apart in the source; their conditions may differ.

How the values were obtained:
human ERβ = molecular target: T1, human ERβ (Homo sapiens, UniProt Q92731); experiment: Binding to human estrogen receptors expressed by the Baculovirus/SF-9-expression system; conditions: human receptors expressed by Baculovirus/SF-9-expression system
T1 construct: host or cells: Baculovirus/SF-9 expression system
T1 sequence (Q92731 whole entry): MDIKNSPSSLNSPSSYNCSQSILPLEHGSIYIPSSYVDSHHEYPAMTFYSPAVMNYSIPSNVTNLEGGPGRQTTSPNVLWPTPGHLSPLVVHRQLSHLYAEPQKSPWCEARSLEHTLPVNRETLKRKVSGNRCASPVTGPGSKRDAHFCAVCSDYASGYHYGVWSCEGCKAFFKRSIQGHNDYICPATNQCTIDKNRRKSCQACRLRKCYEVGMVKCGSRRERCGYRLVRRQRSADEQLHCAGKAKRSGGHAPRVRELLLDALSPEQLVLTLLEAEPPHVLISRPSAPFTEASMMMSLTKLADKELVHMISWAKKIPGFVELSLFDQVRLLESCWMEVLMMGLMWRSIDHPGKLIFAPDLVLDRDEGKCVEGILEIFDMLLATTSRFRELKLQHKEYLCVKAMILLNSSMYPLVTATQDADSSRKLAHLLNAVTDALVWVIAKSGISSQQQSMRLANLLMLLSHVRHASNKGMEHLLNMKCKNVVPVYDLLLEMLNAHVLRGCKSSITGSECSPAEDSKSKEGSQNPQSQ

[1] = test system: spontaneously hypertensive rats (SHR); experiment: In vivo hemodynamics in ovariectomized spontaneously hypertensive rats (SHR); design: species or system rat; conditions: for cardiac output: FIG. 4; for blood pressure / effectiveness in lowering blood pressure relative to estradiol and the ERα agonist: ovx SHR, FIG. 3; for blood pressure: compared to vehicle treated (placebo) animals; for effectiveness in lowering blood pressure relative to estradiol and the ERα agonist: 30 μg/kg/d vs estradiol 2 μg/kg/d and ERα agonist 30 μg/kg/d
Text: The effects of the ERβ-agonists on blood pressure (BP) in ovariectomized SHR, a widely accepted animal model of hypertensive heart disease, were investigated in three independent studies. Estradiol and the steroidal ERα agonist 3,17β-Dihydroxy-19-nor-17α-pregna-1,3,5(10)-triene-21,16α-lactone were used as references. Female spontaneously hypertensive rats (SHR-Nico; 12 weeks old; Charles River Laboratories) were used for the experiment. All animals were kept under standard conditions (eg 12 hr ON/OFF light cycle, commercial diet and water ad libitum). Animals were randomly assigned to different treatment groups as outlined below. All animals were marked individually by ear tag. Female rats (SHR; 12 weeks old) were ovarectomized (ovx) and treated for 4 weeks starting one day after ovx according to the protocol outlined below. All compounds were injected daily using ethanol (EtOH)/peanut oil 4+1 as the vehicle. [table] 12 weeks old female SHR (Charles River™) were ovariectomized or sham-operated. Starting one day after ovariectomy animals were randomly selected for a daily subcutaneous injection of 17β-estradiol (E2, 2 μg/kg body weight/d), the selective ERα agonist 3,17β-Dihydroxy-19-nor-17α-pregna-1,3,5(10)-triene-21,16α-lactone (WO 02/26763) (30 μg/kg body weight/d), the selective ERβ agonist 8β-Vinyl-estra-1,3,5(10)-trien-3,17β-diol (or 17β-Fluor-9α-vinyl-estra-1,3,5(10)-trien-3,16α-diol, respectively 30 μg/kg body weight) or placebo. All animals had free access to standard rat chow and water. E2, 3,17β-Dihydroxy-19-nor-17α-pregna-1,3,5(10)-triene-21,16α-lactone and 8β-Vinyl-estra-1,3,5(10)-trien-3,17β-diol (or 17β-Fluor-9α-vinyl-estra-1,3,5(10)-trien-3,16α-diol) were dissolved in ethanol and injected daily using peanut oil as a carrier substance, placebo animals received ethanol/peanut oil alone. After 4 weeks treatment hemodynamic parameters were measured as described previously (Fraccarollo D, Hu K, Galuppo P, Gaudron P, Ertl G. (1997), Circulation. 1997;96:3963-3973) and animals were euthanized. The following parameters were determined: Systolic, diastolic, mean blood pressure; left ventricular ejection fraction; systolic and diastolic left ventricular pressure as well as the velocity of pressure increase and decrease in the left ventricle; cardiac output, cardiac index, heart rate; systemic vascular resistance. All measurements were performed at rest under isofluran anesthesia. Values are expressed as mean±SEM of parameters from different animals. Statistical analysis was performed by one-way analysis of variance (ANOVA) followed by a post hoc Bonferroni test. P values <0.05 were considered statistically significant.

[2] = molecular target: T2, rat prostate estrogen receptor (ERβ containing cytosol) (Rattus norvegicus, UniProt Q62986); experiment: Estrogen receptor binding, competition with [3H]-estradiol, rat prostate cytosol (compared with rat uterus cytosol); conditions: rat prostate cytosol (ERβ) vs rat uterus cytosol (ERα)
T2 construct: Receptor containing cytosol was prepared from rat prostate (ERβ containing cytosol); from tissue; host or cells: rat prostate cytosol
T2 sequence (Q62986 whole entry): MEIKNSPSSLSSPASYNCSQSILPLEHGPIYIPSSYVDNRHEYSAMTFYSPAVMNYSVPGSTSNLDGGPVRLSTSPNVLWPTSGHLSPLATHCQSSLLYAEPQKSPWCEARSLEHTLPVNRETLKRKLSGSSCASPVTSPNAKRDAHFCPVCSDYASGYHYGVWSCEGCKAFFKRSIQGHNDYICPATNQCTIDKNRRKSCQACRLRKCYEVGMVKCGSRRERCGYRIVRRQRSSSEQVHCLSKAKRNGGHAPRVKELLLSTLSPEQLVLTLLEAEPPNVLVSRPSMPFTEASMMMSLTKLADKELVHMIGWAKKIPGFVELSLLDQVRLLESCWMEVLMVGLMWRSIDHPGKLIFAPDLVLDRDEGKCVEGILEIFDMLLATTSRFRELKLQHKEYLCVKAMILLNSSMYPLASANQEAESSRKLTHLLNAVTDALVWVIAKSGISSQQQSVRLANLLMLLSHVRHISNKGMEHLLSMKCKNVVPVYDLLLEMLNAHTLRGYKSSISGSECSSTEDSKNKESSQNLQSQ
Protocol: The binding affinity of 8β-Vinyl-estra-1,3,5(10)-trien-3,17β-diol and 17β-Fluor-9α-vinyl-estra-1,3,5(10)-trien-3,16α-diol was determined by competition experiments using [3H]-estradiol as a ligand. Receptor containing cytosol was prepared from rat prostate (ERβ containing cytosol) and rat uterus (ERα containing cytosol).
The preparation of rat uterus cytosol and the binding study were performed as described (Stack, Gorski 1985, Endocrinology 117, 2024-2032) with some modifications as described by Fuhrmann et al. (Fuhrmann U. et al. 1995, Contraception 51: 45-52).
The preparation of rat prostate cytosol and the binding study was performed as described (Testas J. et al., 1981, Endocrinology 109: 1287-1289).

[3] = test system: spontaneously hypertensive rats (SHR); experiment: Cardiac hypertrophy (heart weight) in ovariectomized SHR; format: in vivo, rat; conditions: ovx SHR, 4 weeks daily sc; 30 μg/kg/d (estradiol 2 μg/kg/d), compared to placebo treated rats; FIG. 6
Text: The effects of the ERβ-agonists on blood pressure (BP) in ovariectomized SHR, a widely accepted animal model of hypertensive heart disease, were investigated in three independent studies. Estradiol and the steroidal ERα agonist 3,17β-Dihydroxy-19-nor-17α-pregna-1,3,5(10)-triene-21,16α-lactone were used as references. Female spontaneously hypertensive rats (SHR-Nico; 12 weeks old; Charles River Laboratories) were used for the experiment. All animals were kept under standard conditions (eg 12 hr ON/OFF light cycle, commercial diet and water ad libitum). Animals were randomly assigned to different treatment groups as outlined below. All animals were marked individually by ear tag. Female rats (SHR; 12 weeks old) were ovarectomized (ovx) and treated for 4 weeks starting one day after ovx according to the protocol outlined below. All compounds were injected daily using ethanol (EtOH)/peanut oil 4+1 as the vehicle. [table] […] After 4 weeks treatment hemodynamic parameters were measured as described previously (Fraccarollo D, Hu K, Galuppo P, Gaudron P, Ertl G. (1997), Circulation. 1997;96:3963-3973) and animals were euthanized. Cardiac hypertrophy in all animals was determined by measuring total heart weight and subsequent normalization to tibia length. Values are expressed as mean±SEM of parameters from different animals. […]

[4] = Body weight of ovariectomized SHR; format: in vivo, rat; conditions: daily sc injection for 4 weeks, 30 μg/kg/d (estradiol 2 μg/kg/d), FIG. 2
Text: (§1) The effects of the ERβ-agonists on blood pressure (BP) in ovariectomized SHR, a widely accepted animal model of hypertensive heart disease, were investigated in three independent studies. Estradiol and the steroidal ERα agonist 3,17β-Dihydroxy-19-nor-17α-pregna-1,3,5(10)-triene-21,16α-lactone were used as references. Female spontaneously hypertensive rats (SHR-Nico; 12 weeks old; Charles River Laboratories) were used for the experiment. All animals were kept under standard conditions (eg 12 hr ON/OFF light cycle, commercial diet and water ad libitum). Animals were randomly assigned to different treatment groups as outlined below. All animals were marked individually by ear tag. Female rats (SHR; 12 weeks old) were ovarectomized (ovx) and treated for 4 weeks starting one day after ovx according to the protocol outlined below. All compounds were injected daily using ethanol (EtOH)/peanut oil 4+1 as the vehicle. [table] 12 weeks old female SHR (Charles River™) were ovariectomized or sham-operated. […] After 4 weeks treatment hemodynamic parameters were measured as described previously (Fraccarollo D, Hu K, Galuppo P, Gaudron P, Ertl G. (1997), Circulation. 1997;96:3963-3973) and animals were euthanized.

[5] = test system: uterus (indicator of classical ERα-mediated estrogen action); experiment: Uterus fresh weight in ovariectomized SHR; format: in vivo, rat; conditions: ovx SHR, daily sc injection for 4 weeks; 30 μg/kg/d (estradiol 2 μg/kg/d); FIG. 1
Text: as §1, with “euthanized. Uterus fresh weight was measured as an indicator of classical ERα-mediated estrogen action.” for “euthanized.”

[6] = ovx (estradiol-deficient) SHR, 30 μg/kg/d sc for 4 weeks

SMILES: C=C[C@]12CC[C@]3(C)[C@@H](F)[C@H](O)C[C@H]3[C@@H]1CCc1cc(O)ccc12 [17β-Fluor-9α-vinyl-estra-1,3,5(10)-trien-3,16α-diol]
- affinity to human ERβ compared to ERα (human ERβ): higher affinity to human ERβ compared to ERα
- cardiac output [1, 6]: significant improvement of cardiac output; also recorded: increase cardiac output
- blood pressure ([1]; 30 μg/kg/d sc for 4 weeks): significant reduction of systolic as well as diastolic blood pressure; also recorded: lower systolic, mean and diastolic blood pressure
- effectiveness in lowering blood pressure relative to estradiol and the ERα agonist [1]: more effective
- binding affinity to rat prostate estrogen receptor compared to rat uterus estrogen receptor [2]: higher binding affinity to the rat prostate compared to rat uterus estrogen receptor
- cardiac hypertrophy (heart weight) [3]: significantly inhibited; also recorded: prevent the development of cardiac hypertrophy

SMILES: C=C[C@@]12CCc3cc(O)ccc3[C@H]1CC[C@@]1(C)[C@H]2CC[C@@H]1O [8β-Vinyl-estra-1,3,5(10)-trien-3,17β-diol]
- affinity to human ERβ compared to ERα (human ERβ): higher affinity to human ERβ compared to ERα
- cardiac index [1, 6]: augmented
- cardiac output [1, 6]: significant improvement of cardiac output; also recorded: increase cardiac output; also recorded: augmented
- left-ventricular stroke volume ([1]; ovx (estradiol-deficient) SHR, 30 μg/kg/d sc for 4 weeks, FIG. 5): augmented
- blood pressure ([1]; 30 μg/kg/d sc for 4 weeks): significant reduction of systolic as well as diastolic blood pressure; also recorded: lower systolic, mean and diastolic blood pressure; also recorded: lowered blood pressure levels
- effectiveness in lowering blood pressure relative to estradiol and the ERα agonist [1]: more effective
- binding affinity to rat prostate estrogen receptor compared to rat uterus estrogen receptor [2]: higher binding affinity to the rat prostate compared to rat uterus estrogen receptor
- cardiac hypertrophy (heart weight) [3]: significantly inhibited; also recorded: prevent the development of cardiac hypertrophy; also recorded: inhibitory effect on cardiac hyperthrophy as indicated by a reduction in heart weight
- effect on ovx-induced adipose phenotype (body weight) [4]: nor affect the ovx-induced adipose phenotype
- stimulation of uterine growth (uterine weight) [5]: did neither cause stimulation of uterine growth
